This assay concerns the target T1, human-KAT6A (MYST domain 507-778 aa) (Homo sapiens, UniProt Q92794).
T1 construct: human-KAT6A (MYST domain 507-778 aa)
The experiment in a line: KAT6A biochemical assay (TR-FRET). The settings on record: for inhibition at 1 µM: compound at 1 μM, percent inhibition of internal assay controls; for IC50: dose-response, sigmoidal curve fit, groups A, B, C. The text has this:
A TR-FRET based method was used for assaying compounds of the invention for KAT6A enzyme inhibitory activity. TR-FRET is homogeneous proximity assay where Europium-labelled anti-acetyl lysine antibody binds to the acetylated substrate labelled with biotin which in turn binds to streptavidin labelled APC fluorescence acceptor. Europium can transfer energy to APC in the complex and the interaction of two dye-labelled binding partners is detected by the energy transfer between a donor and an acceptor dye, and the subsequent light emission by the acceptor dye. KAT6A transfer an acetyl group from acetyl CoA to lysine amino acids of histones/target proteins. Typically, 5 μL of human-KAT6A (MYST domain 507-778 aa) in assay buffer (100 mM Tris HCl (pH 7.8), 15 mM NaCl, 1 mM EDTA, 0.01% Tween-20, 0.02% BSA, 1 mM DTT) is added to a 384-well plate containing 5 μL of selected test compound in final 1% DMSO, serially diluted in 1:3 in an 8-10-point titration. The selected compound of the present invention and enzyme are incubated for 30 min at room temperature. Next, 5 μL of substrate mix containing histone H4 peptide and acetyl-CoA in assay buffer is added to the plate. The final concentrations of H4 peptide and acetyl-CoA are 200 nM and 600 nM respectively. Following 30 min reaction at room temperature, 5 μL of detection mix containing Europium labelled anti-acetyl antibody and streptavidin-APC is added to the reaction wells. Plate is further incubated for 45 min at room temperature and is read in TR-FRET mode (Ex: 340 nm; Em: 615 nm and 665 nm) on a plate reader.
Selected compounds of the present invention were screened in the above-mentioned assay procedure and IC50 values were determined by fitting the dose-response data to sigmoidal curve fitting equation using Graph pad prism software V8. […]
(In general: In TR-FRET formats the signal depends on donor and acceptor labels being close together.)

Structures are written as SMILES. A value given as a limit tells only on which side of the number the result lay.

T1 sequence (Q92794 507-778): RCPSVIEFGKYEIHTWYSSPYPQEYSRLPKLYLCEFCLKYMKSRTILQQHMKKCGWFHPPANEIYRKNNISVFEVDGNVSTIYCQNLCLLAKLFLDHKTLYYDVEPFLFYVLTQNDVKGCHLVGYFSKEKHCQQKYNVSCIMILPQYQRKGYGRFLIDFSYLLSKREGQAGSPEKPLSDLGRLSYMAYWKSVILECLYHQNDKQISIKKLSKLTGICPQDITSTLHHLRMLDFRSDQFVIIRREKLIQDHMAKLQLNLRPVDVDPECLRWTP

The molecule `COc1cccc(OC)c1S(=O)(=O)Nc1noc2nc(N(C)C)cc(OC)c12` [Compound 15, N-(6-(dimethylamino)-4-methoxyisoxazolo[5,4-b]pyridin-3-yl)-2,6-dimethoxybenzenesulfonamide] yielded an inhibition at 1 µM of 59% and an IC50 of over 200 nM.
The molecule `COc1cc(-c2ccccc2)nc2onc(NS(=O)(=O)c3c(F)cccc3F)c12` [Compound 25, 2,6-difluoro-N-(4-methoxy-6-phenylisoxazolo[5,4-b]pyridin-3-yl)benzenesulfonamide] displayed an inhibition at 1 µM of 30%.
In the case of `COc1cccc(OC)c1S(=O)(=O)Nc1noc2cc(-c3ccccc3)n(C)c(=O)c12` [Compound 4, 2,6-dimethoxy-N-(5-methyl-4-oxo-6-phenyl-4,5-dihydroisoxazolo[4,5-c]pyridin-3-yl)benzenesulfonamide], the inhibition at 1 µM stood at 23%.
Same read-out and setting: the same measure for `CCN(Cc1ccc(OC)cc1)c1cc(OC)c2c(NS(=O)(=O)c3c(OC)cccc3OC)noc2n1` [Compound 30, N-(6-(ethyl(4-methoxybenzyl)amino)-4-methoxyisoxazolo[5,4-b]pyridin-3-yl)-2,6-dimethoxybenzenesulfonamide]: 56%.
On to `COc1cccc(OC)c1S(=O)(=O)Nc1noc2nc(C3=CCCC3)cc(OC)c12` [Compound 32, N-(6-(cyclopent-1-en-1-yl)-4-methoxyisoxazolo[5,4-b]pyridin-3-yl)-2,6-dimethoxybenzenesulfonamide], for which the IC50 was in the range of 110 to 200 nM.
The molecule `CCc1ccc(OC)c(S(=O)(=O)Nc2noc3nc(-c4ccccc4)cc(OC)c23)c1` [Compound 33, 5-ethyl-2-methoxy-N-(4-methoxy-6-phenylisoxazolo[5,4-b]pyridin-3-yl)benzenesulfonamide] showed an IC50 of under 100 nM.
`COc1cccc(OC)c1S(=O)(=O)Nc1noc2cc(-c3ccccc3)nc(OC)c12` [Compound 3, 2,6-dimethoxy-N-(4-methoxy-6-phenylisoxazolo[4,5-c]pyridin-3-yl)benzenesulfonamide]: testing at 1 µM gave an inhibition of 96% and the IC50 is 110 to 200 nM.

A word on the inhibition: it is how much of the control response was suppressed. What is called IC50 is the concentration at which inhibition is half-maximal.

These data come from patent US20240254139A1, “FUSED ISOXAZOLYL COMPOUNDS AS KAT6A INHIBITORS” (Aurigene Oncology Limited, priority 2021, published 2024).
